# US5981256A, “Recombinant stratum corneum chymotryptic enzyme (SCCE)” (priority 1993, dated 1999)
# Square brackets hold non-standard residues; d marks the D form. Peptide text beside a SMILES is read from it. * marks the point of attachment. Sta = CC(C)C[C@H](N)[C@@H](O)CC(=O)O; Isovaleryl = CC(C)CC(=O)*
# Legend:
# [1] = target: proteinase associated with plantar stratum corneum cells (native human stratum corneum chymotryptic enzyme, SCCE) (Homo sapiens, UniProt P49862); assay: Hydrolysis of S-2586 by the proteinase associated with plantar stratum corneum cells (suspended cells); conditions: for Activity (%) (±SD, n = 3), hydrolysis of S-2586: pH 8, control = 100
# proteinase associated with plantar stratum corneum cells (native human stratum corneum chymotryptic enzyme, SCCE), sequence (P49862 30-253): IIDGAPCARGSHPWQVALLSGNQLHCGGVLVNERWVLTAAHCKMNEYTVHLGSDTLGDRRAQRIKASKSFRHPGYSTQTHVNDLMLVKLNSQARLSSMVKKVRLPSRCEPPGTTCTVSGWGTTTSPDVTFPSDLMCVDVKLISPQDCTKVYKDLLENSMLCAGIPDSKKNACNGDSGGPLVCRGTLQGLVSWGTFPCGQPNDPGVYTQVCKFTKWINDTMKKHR
# [2] = target: T1, 25 kD caseinolytic enzyme of plantar corneocytes (native stratum corneum chymotryptic enzyme, SCCE) (Homo sapiens, UniProt P49862); assay: Zymography (SDS-PAGE with co-polymerized casein) of extracts of plantar corneocytes; format: biochemical; conditions: pH 8
# T1 construct: from tissue; host or cells: human plantar stratum corneum, dissociated corneocytes (suspended cells, SDS-extract or KCl-extract)
# T1 sequence (P49862 30-253): as above
# Experimental: C: The effect of inhibitors. sc=SDS-extract of plantar corneocytes; c=bovine chymotrypsin; t=bovine trypsin. The inhibitors were present during pretreatment with Triton X-100 and the subsequent incubation. […] Leupeptin and chymostatin were added as solutions in dimethylsulphoxide (DMSO). Buffer for pretreatment and incubation=0.1 M Tris-HCl pH 8 with final concentration of DMSO 1% (v/v). Other conditions as in A.
# SDS-PAGE and Coomassie blue-staining (A) and zymography after SDS-PAGE with co-polymerized casein (B) of fractions 2, 6, and 10 from the chromatogram shown in FIG. 10. Molecular weight markers to the left.
# Therefore experiments with zymography were performed. For this reason KCl extracts of corneocytes were prepared for electrophoresis according to Laemmli (Laemmli 1970) but with no reducing agent in the sample buffer and with no heating of the samples. Samples were also prepared by means of extraction of dissociated plantar corneocytes with Laemmli's sample buffer without reducing agent at room temperature. For zymography a modification of the procedure of Horie et al. (Horie et al. 1984) was adopted. Polyacrylamide gel elctrophoresis in the presence of sodium dodecyl sulphate (SDS-PAGE) was carried out according to Laemmli in 12.5% gels with 1% co-polymerized heat-denatured casein. […]
# [3] = test system: plantar stratum corneum; conditions: cited from earlier work
# [4] = test system: plantar stratum corneum; assay: Cell release (cell shedding) from plantar stratum corneum in vitro; format: cell-based; conditions: Homo sapiens, 16 hours at 37° C., mean and SD for five tissue pieces
# Experimental: A method to quantify the cell shedding was then developed, which allowed studies on the effects of various parameters such as temperature, pH, and enzyme inhibitors. Cylinders of plantar stratum corneum with diameter 3 mm were prepared with a biopsy punch from flakes of tissue taken and freed from loosely attached surface cells as described above in 1.1. […] The remaining tissue was removed and placed in fresh media for continued incubation. Tubes with released cells were centrifuged for 2 min at 5000 g to collect the cells. The cell pellets were washed once with 0.5 ml of phosphate buffered saline and then treated at 60° C. for 1.5 hours with 0.6 ml of 1 M sodium hydroxide. The alkali soluble protein was quantified according to Lowry et al., 1951, and taken as a measure of the amount of released cells.
# [5] = target: T2, recombinant human stratum corneum chymotryptic enzyme (rSCCE), SEQ ID NO:2 (Homo sapiens, UniProt P49862); assay: S-2586 hydrolysing activity of recombinant SCCE with inhibitors; format: biochemical; conditions: no inhibitor = 100
# T2 construct: made in house; host or cells: murine C127 cells (ATCC CRL 1616), vector pS507
# T2 sequence (P49862 30-253): as above
# Experimental: (§1) Incubations were performed at 37° C. in microtiter plates. The total incubation volume was 135 μl. Each incubation mixture contained Tris-HCl pH 8.0 (final concentration 0.08 M), KCl (final concentration 0.2 M), 100 μl substrate solution, 25 μl enzyme source (appropriately diluted in 0.1 M Tris-HCl pH 8.0, 1.0 M KCl) and 10 μl inhibitor solution.
# (§2) In FIG. 9, A-C, MeO-Suc-Arg-Pro-Tyr-pNA (S-2586, initial concentration 1.2 mM) was used as substrate. In D the initial concentration of both substrates was 1.2 mM.
# The experimental design was as outlined in Example 3.2.
# [6] = target: bovine chymotrypsin (Bos taurus, UniProt P00766); assay: Proteinase assay with chromogenic substrate S-2586, bovine chymotrypsin; format: biochemical; conditions: S-2586 1.2 mM; pH 8.0; 37° C.; FIG. 9B
# Experimental: (§3) Stock solution of MeO-Suc-Arg-Pro-Tyr-pNA (S-2586) was prepared in distilled water, of Suc-Ala-Ala-Pro-Phe-pNA (SEQ ID NO:11) (Boehringer, Mannheim, Germany) in 1-methyl-2-pyrrolidone (final concentration of solvent in incubation mixtures 4%) and of chymostatin in dimethyl sulphoxide (final concentration of solvent in incubation mixtures 1%). Cathepsin G from purulent human sputum was obtained from E. Lotti, Geneva, Switzerland. The source of SCCE was KCl-extract of dissociated plantar corneocytes prepared as described above.
# as §1, §2
# [7] = test system: desmoglein I (DG I) in plantar stratum corneum; assay: Degradation of desmoglein I (DG I) in plantar stratum corneum during cell shedding in vitro (immunoblot); format: cell-based, human; conditions: inhibitor 330 μM; 24 hours
# Experimental: The fate of desmoglein I (DG I) during cell shedding in vitro from plantar stratum corneum was studied. Plantar stratum corneum was incubated as described above in 1.1, and still cohesive tissue was separated from dissociated cells. Cells and tissue were extracted in a buffer containing 0.1 M Tris-HCl pH 9, 9 M urea, 2% sodium dodecylsulphate, 1% mercaptoethanol, 1 ml buffer per 20 mg of tissue, for 15 hours at 37° C. The extracts were prepared for polyacrylamide gel electrophoresis in 7.5% gels in the presence of sodium dodecyl sulphate (SDS-PAGE) according to Laemmli (Laemmli, 1970), followed by electrophoretic transfer (Towbin et al., 1979) to a nitrocellulose membrane (Bio-Rad, Richmond, Calif.) which was probed with a rabbit polyclonal antiserum prepared against DG I purified from bovine muzzles (Gorbsky et al. 1985). Bound antibodies were detected with alkaline phosphatase conjugated goat anti-rabbit immunoglobulins (Bio-Rad, Richmond, Calif.) (Blake et al. 1984).
# SDS-PAGE and immunoblotting was performed as described above. Densitometric scannings of the immunblots were carried out in a Shimadzu CS-9000 flying spot scanner (Shimadzu, Kyoto, Japan) with reflected light at 560 nm in the zigzag mode.
# [8] = target: T3, native stratum corneum chymotryptic enzyme (SCCE), KCl-extract of dissociated plantar corneocytes (Homo sapiens, UniProt P49862); assay: Proteinase assay with chromogenic substrate S-2586, native SCCE; format: biochemical; conditions: S-2586 1.2 mM, pH 8.0, FIG. 9B
# T3 construct: from tissue; host or cells: human plantar stratum corneum, dissociated corneocytes (suspended cells, SDS-extract or KCl-extract)
# T3 sequence (P49862 30-253): as above
# Experimental: as §3, §1, §2
# [9] = target: T4, human cathepsin G (from purulent human sputum) (Homo sapiens, UniProt P08311); assay: Proteinase assay with chromogenic substrate S-2586, human cathepsin G; format: biochemical; conditions: S-2586 1.2 mM; pH 8.0; 37° C.; FIG. 9B
# T4 construct: Cathepsin G from purulent human sputum; tissue E. Lotti, Geneva, Switzerland; host or cells: purulent human sputum
# T4 sequence (P08311 21-244 limits assumed): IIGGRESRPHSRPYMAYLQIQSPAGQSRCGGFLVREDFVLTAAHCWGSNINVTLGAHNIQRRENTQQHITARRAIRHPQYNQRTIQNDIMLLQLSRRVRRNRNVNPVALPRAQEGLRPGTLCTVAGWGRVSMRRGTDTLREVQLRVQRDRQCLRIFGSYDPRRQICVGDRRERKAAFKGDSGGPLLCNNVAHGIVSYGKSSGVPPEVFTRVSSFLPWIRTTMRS
# Experimental: as §3, §1, §2
# [10] = pH 8, read-out: Activity (%) (±SD, n = 3), hydrolysis of S-2586
molecule,measurement,setting,value
O=C(O)CN(CCN(CC(=O)O)CC(=O)O)CC(=O)O [EDTA],activity at 4200 µM,[1]; [10],109 ± 1%
"CC(=O)N[C@@H](CC(C)C)C(=O)N[C@@H](CC(C)C)C(=O)N[C@H](C=O)CCCNC(=N)N [Leupeptin, leupeptin]",Inhibition of caseinolytic activity (zymography),[2]; leupeptin 160 μM,not by leupeptin
same,activity at 325 µM,[1]; [10],93 ± 3%
same,Effect on the in vitro cell shedding,[3],no effect
"O=S(=O)(F)Cc1ccccc1 [PMSF, phenylmethylsulphonyl fluoride]","Activity (%) (±SD, n = 3), hydrolysis of S-2586","[1]; PMSF 1 mM, preincubated 1 hour at room temperature",8 ± 3%
"NC(=O)CI [Iodoacetamide, iodoacetamide]",inhibition at 1000 µM,[4]; iodoacetamide 1 × 10^-3 mol/l,6 ± 13%
chymostatin,"Activity (%), S-2586 hydrolysing activity",[5]; chymostatin 0.64 μM,74.9%
same,"Activity (%), S-2586 hydrolysing activity",[5]; chymostatin 2.56 μM,33%
same,"Activity (%), S-2586 hydrolysing activity",[5]; chymostatin 41 μM,1.9%
same,Inhibition of caseinolytic activity (zymography),[2]; chymostatin 40 μM,could be inhibited
same,Inhibition of S-2586 hydrolysis,[6],caused inhibition
same,"Activity (%) (±SD, n = 3), hydrolysis of S-2586","[1]; chymostatin 11 μM, 5% DMSO",66 ± 9%
same,"Activity (%) (±SD, n = 3), hydrolysis of S-2586","[1]; chymostatin 55 μM, 5% DMSO",32 ± 0%
same,"Activity (%) (±SD, n = 3), hydrolysis of S-2586","[1]; chymostatin 275 μM, 5% DMSO",15 ± 3%
same,Inhibition of the transformation of anti-DG I positive components from 160 kD to 95 and 80 kD,[7],inhibition
same,Inhibition of S-2586 hydrolysis,[8]; 37° C.,caused inhibition
same,"Inhibitor concentration that caused 50% inhibition, SCCE compared with chymotrypsin and cathepsin G",[8],more than three orders of magnitude higher
same,Inhibition of S-2586 hydrolysis,[9],caused inhibition
same,Inhibition of the first step of cell shedding in vitro,"[3]; first step, takes place with or without EDTA",could be inhibited
same,Inhibition of the second step of cell shedding in vitro,"[3]; second step, only in the presence of EDTA",could be inhibited
"CC(C)CC(=O)N[C@H](C(=O)N[C@H](C(=O)N[C@@H](CC(C)C)[C@@H](O)CC(=O)N[C@@H](C)C(=O)N[C@@H](CC(C)C)[C@@H](O)CC(=O)O)C(C)C)C(C)C [Pepstatin, pepstatin] (Isovaleryl-VV[Sta]A[Sta]-OH)",inhibition at 100 µM,[4]; pepstatin 1 × 10^-4 mol/l,8 ± 4%
